# Assay results reported in patent US12091411B2, “IRAK degraders and uses thereof” (Kymera Therapeutics, Inc., priority 2022, dated 2024).
# Where two headings read alike, the source gives them in different places.
# Biological target: T1, IRAK4 (Homo sapiens, UniProt Q9NWZ3)
# T1 construct: Degradation of IRAK4 in OCI-LY10 was quantitatively measured using Meso Scale Discovery technology; endogenous in cells; host or cells: OCI-LY10
# T1 sequence (Q9NWZ3 1-460): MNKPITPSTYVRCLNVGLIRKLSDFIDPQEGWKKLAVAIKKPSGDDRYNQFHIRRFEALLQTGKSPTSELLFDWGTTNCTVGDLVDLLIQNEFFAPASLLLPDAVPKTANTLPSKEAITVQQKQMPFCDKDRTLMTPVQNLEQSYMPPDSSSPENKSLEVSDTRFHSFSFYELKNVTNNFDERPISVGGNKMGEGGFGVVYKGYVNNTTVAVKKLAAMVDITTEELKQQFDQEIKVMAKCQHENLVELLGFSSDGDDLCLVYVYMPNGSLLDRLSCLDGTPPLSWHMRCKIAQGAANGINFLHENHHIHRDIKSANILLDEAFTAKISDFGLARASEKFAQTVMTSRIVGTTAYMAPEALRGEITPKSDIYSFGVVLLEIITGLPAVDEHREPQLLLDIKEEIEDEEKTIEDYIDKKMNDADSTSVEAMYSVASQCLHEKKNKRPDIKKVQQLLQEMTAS
# Assay: IRAK4 MSD Degradation in OCI-LY10
# Format: cell-based
# Conditions: OCI-LY10 cells, MSD
# How it was run: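 OCI-LY10 cells exposed to 8-point 1:3 compound series (top 1 to 10 μM) for 4 to 24 h at 37 °C, 5% CO2. Lysate IRAK4 quantified by MSD sandwich immunoassay. DC50 from three-parameter logistic fit, binned A (<0.01 μM) to D (>0.2 μM or not tested).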
# [1] = 4 hrs incubation, read-out: IRAK4 degradation in OCI-LY10 at 4 hrs: DC50
# [2] = 24 hrs incubation, read-out: IRAK4 degradation in OCI-LY10 at 24 hrs: DC50
DC50 [1],DC50 [2],SMILES
> 200 nM,> 200 nM,CN(Cc1ccc(-n2cc(NC(=O)c3cnn4cccnc34)c(C(F)F)n2)cc1)C1CCN(c2cccc3c2n(C)c(=O)n3C2CCC(=O)NC2=O)CC1 (centres unmarked) [I-314]
> 200 nM,< 10 nM,Cn1c(=O)n(C2CCC(=O)NC2=O)c2cccc(C#CCN3CCN(C[C@H]4CC[C@H](n5cc(NC(=O)c6cnn7ccc(N8CC9(COC9)C8)nc67)c(C(F)F)n5)CC4)CC3)c21 (some centres unmarked) [I-315]
> 200 nM,10 to 100 nM,Cn1c(=O)n(C2CCC(=O)NC2=O)c2cccc(C#CCN3CCN(C[C@H]4CC[C@H](n5cc(NC(=O)c6cnn7ccc(N8CC9(CCOCC9)C8)nc67)c(C(F)F)n5)CC4)CC3)c21 (some centres unmarked) [I-316]
> 200 nM,> 200 nM,Cn1c(=O)n(C2CCC(=O)NC2=O)c2cccc(C#CCN3CCN(C[C@H]4CC[C@H](n5cc(NC(=O)c6cnn7ccc(N8CC9(CCOC9)C8)nc67)c(C(F)F)n5)CC4)CC3)c21 (some centres unmarked) [I-317]
10 to 100 nM,> 200 nM,Cn1c(=O)n(C2CCC(=O)NC2=O)c2cccc(C#CCN3CCN(C[C@H]4CC[C@H](n5cc(NC(=O)c6cnn7ccc(N8CC9(CCCOC9)C8)nc67)c(C(F)F)n5)CC4)CC3)c21 (some centres unmarked) [I-318]
> 200 nM,< 10 nM,Cn1c(=O)n(C2CCC(=O)NC2=O)c2cccc(C#CCN3CCN(C[C@H]4CC[C@H](n5cc(NC(=O)c6cnn7ccc(N8CCC9(CCOCC9)C8)nc67)c(C(F)F)n5)CC4)CC3)c21 (some centres unmarked) [I-319]
< 10 nM,> 200 nM,Cn1c(=O)n(C2CCC(=O)NC2=O)c2cccc(C#CCN3CCN(C[C@H]4CC[C@H](n5cc(NC(=O)c6cnn7ccc(N8CCC9(COC9)C8)nc67)c(C(F)F)n5)CC4)CC3)c21 (some centres unmarked) [I-320]
> 200 nM,< 10 nM,Cn1c(=O)n(C2CCC(=O)NC2=O)c2cccc(C#CCN3CCN(C[C@H]4CC[C@H](n5cc(NC(=O)c6cnn7ccc(N8CCC9(CCOC9)C8)nc67)c(C(F)F)n5)CC4)CC3)c21 (some centres unmarked) [I-321]
> 200 nM,> 200 nM,Cn1c(=O)n(C2CCC(=O)NC2=O)c2cccc(C#CCN3CCN(C[C@H]4CC[C@H](n5cc(NC(=O)c6cnn7ccc(N8CCOC(C(F)(F)F)C8)nc67)c(C(F)F)n5)CC4)CC3)c21 (some centres unmarked) [I-322]
> 200 nM,> 200 nM,Cn1c(=O)n(C2CCC(=O)NC2=O)c2cccc(C#CCN3CCN(C[C@H]4CC[C@H](n5cc(NC(=O)c6cnn7ccc(N8CC9COCC9C8)nc67)c(C(F)F)n5)CC4)CC3)c21 (some centres unmarked) [I-323]
> 200 nM,> 200 nM,Cn1c(=O)n(C2CCC(=O)NC2=O)c2cccc(C#CCN3CCN(C[C@H]4CC[C@H](n5cc(NC(=O)c6cnn7ccc(N8CCOC(F)(F)C8)nc67)c(C(F)F)n5)CC4)CC3)c21 (some centres unmarked) [I-324]
> 200 nM,> 200 nM,Cn1c(=O)n(C2CCC(=O)NC2=O)c2cccc(C#CCOC3CCN(C[C@H]4CC[C@H](n5cc(NC(=O)c6cnn7ccc(N8CC9(COC9)C8)nc67)c(C(F)F)n5)CC4)CC3)c21 (some centres unmarked) [I-325]
10 to 100 nM,> 200 nM,Cn1c(=O)n(C2CCC(=O)NC2=O)c2cccc(C#CCOC3CCN(C[C@H]4CC[C@H](n5cc(NC(=O)c6cnn7ccc(N8CC9(CCOCC9)C8)nc67)c(C(F)F)n5)CC4)CC3)c21 (some centres unmarked) [I-326]
> 200 nM,< 10 nM,Cn1c(=O)n(C2CCC(=O)NC2=O)c2cccc(C#CCOC3CCN(C[C@H]4CC[C@H](n5cc(NC(=O)c6cnn7ccc(N8CC9(CCOC9)C8)nc67)c(C(F)F)n5)CC4)CC3)c21 (some centres unmarked) [I-327]
10 to 100 nM,> 200 nM,Cn1c(=O)n(C2CCC(=O)NC2=O)c2cccc(C#CCOC3CCN(C[C@H]4CC[C@H](n5cc(NC(=O)c6cnn7ccc(N8CC9(CCCOC9)C8)nc67)c(C(F)F)n5)CC4)CC3)c21 (some centres unmarked) [I-328]
10 to 100 nM,> 200 nM,Cn1c(=O)n(C2CCC(=O)NC2=O)c2cccc(C#CCOC3CCN(C[C@H]4CC[C@H](n5cc(NC(=O)c6cnn7ccc(N8CCC9(CCOCC9)C8)nc67)c(C(F)F)n5)CC4)CC3)c21 (some centres unmarked) [I-329]
> 200 nM,> 200 nM,Cn1c(=O)n(C2CCC(=O)NC2=O)c2cccc(C#CCOC3CCN(C[C@H]4CC[C@H](n5cc(NC(=O)c6cnn7ccc(N8CCC9(COC9)C8)nc67)c(C(F)F)n5)CC4)CC3)c21 (some centres unmarked) [I-330]
10 to 100 nM,> 200 nM,Cn1c(=O)n(C2CCC(=O)NC2=O)c2cccc(C#CCOC3CCN(C[C@H]4CC[C@H](n5cc(NC(=O)c6cnn7ccc(N8CCC9(CCOC9)C8)nc67)c(C(F)F)n5)CC4)CC3)c21 (some centres unmarked) [I-331]
< 10 nM,> 200 nM,Cn1c(=O)n(C2CCC(=O)NC2=O)c2cccc(C#CCOC3CCN(C[C@H]4CC[C@H](n5cc(NC(=O)c6cnn7ccc(N8CC9COCC9C8)nc67)c(C(F)F)n5)CC4)CC3)c21 (some centres unmarked) [I-332]

DC50 [1],DC50 [2],SMILES
> 200 nM,> 200 nM,Cn1c(=O)n(C2CCC(=O)NC2=O)c2cccc(C#CCOC3CCN(C[C@H]4CC[C@H](n5cc(NC(=O)c6cnn7ccc(N8CCOC(C(F)(F)F)C8)nc67)c(C(F)F)n5)CC4)CC3)c21 (some centres unmarked) [I-333]
> 200 nM,> 200 nM,Cn1c(=O)n(C2CCC(=O)NC2=O)c2cccc(C#CCOC3CCN(C[C@H]4CC[C@H](n5cc(NC(=O)c6cnn7ccc(N8CCOC(F)(F)C8)nc67)c(C(F)F)n5)CC4)CC3)c21 (some centres unmarked) [I-334]
> 200 nM,> 200 nM,Cn1c(=O)n(C2CCC(=O)NC2=O)c2cccc(C#CCN3CCN(C[C@H]4CC[C@H](n5cc(NC(=O)c6cccc7ccc(N8CCC8)nc67)c(C(F)F)n5)CC4)CC3)c21 (some centres unmarked) [I-335]
> 200 nM,> 200 nM,Cn1c(=O)n(C2CCC(=O)NC2=O)c2cccc(C#CCOC3CCN(C[C@H]4CC[C@H](n5cc(NC(=O)c6cccc7ccc(N8CCC8)nc67)c(C(F)F)n5)CC4)CC3)c21 (some centres unmarked) [I-336]
> 200 nM,< 10 nM,Cn1c(=O)n(C2CCC(=O)NC2=O)c2cccc(C#CCN3CCN(C[C@H]4CC[C@H](n5cc(NC(=O)c6cnn7ccc(N8CC9CC(C8)O9)nc67)c(C(F)F)n5)CC4)CC3)c21 (some centres unmarked) [I-337]
> 200 nM,< 10 nM,Cn1c(=O)n(C2CCC(=O)NC2=O)c2cccc(C#CCN3CCN(C[C@H]4CC[C@H](n5cc(NC(=O)c6cnn7ccc(N8C9COCC8C9)nc67)c(C(F)F)n5)CC4)CC3)c21 (some centres unmarked) [I-338]
< 10 nM,> 200 nM,Cn1c(=O)n(C2CCC(=O)NC2=O)c2cccc(C#CCN3CCN(C[C@H]4CC[C@H](n5cc(NC(=O)c6cnn7ccc(N8C9CCC8COC9)nc67)c(C(F)F)n5)CC4)CC3)c21 (some centres unmarked) [I-339]
> 200 nM,> 200 nM,Cn1c(=O)n(C2CCC(=O)NC2=O)c2cccc(C#CCN3CCN([C@H]4CC[C@H](n5cc(NC(=O)c6cnn7ccc(N8C[C@H]9C[C@@H]8CO9)nc67)c(C(F)F)n5)CC4)CC3)c21 (some centres unmarked) [I-340]
> 200 nM,> 200 nM,Cn1c(=O)n(C2CCC(=O)NC2=O)c2cccc(C#COCC3CCN([C@H]4CC[C@H](n5cc(NC(=O)c6cnn7ccc(N8C[C@H]9C[C@@H]8CO9)nc67)c(C(F)F)n5)CC4)CC3)c21 (some centres unmarked) [I-341]
< 10 nM,> 200 nM,Cn1c(=O)n(C2CCC(=O)NC2=O)c2cccc(C#CCN3CC4CCC(C3)N4C[C@H]3CC[C@H](n4cc(NC(=O)c5cnn6ccc(N7C[C@H]8C[C@@H]7CO8)nc56)c(C(F)F)n4)CC3)c21 (some centres unmarked) [I-342]
> 200 nM,< 10 nM,Cn1c(=O)n(C2CCC(=O)NC2=O)c2cccc(C#CCN3C4CCC3CN(C[C@H]3CC[C@H](n5cc(NC(=O)c6cnn7ccc(N8C[C@H]9C[C@@H]8CO9)nc67)c(C(F)F)n5)CC3)C4)c21 (some centres unmarked) [I-343]
> 200 nM,> 200 nM,Cn1c(=O)n(C2CCC(=O)NC2=O)c2cccc(C#CCN3CC4CC(C3)N4C[C@H]3CC[C@H](n4cc(NC(=O)c5cnn6ccc(N7C[C@H]8C[C@@H]7CO8)nc56)c(C(F)F)n4)CC3)c21 (some centres unmarked) [I-344]
10 to 100 nM,> 200 nM,Cn1c(=O)n(C2CCC(=O)NC2=O)c2cccc(C#CCN3C4CC3CN(C[C@H]3CC[C@H](n5cc(NC(=O)c6cnn7ccc(N8C[C@H]9C[C@@H]8CO9)nc67)c(C(F)F)n5)CC3)C4)c21 (some centres unmarked) [I-345]
100 to 200 nM,> 200 nM,Cn1c(=O)n(C2CCC(=O)NC2=O)c2cccc(C#CCN3CC4COCC(C3)N4C[C@H]3CC[C@H](n4cc(NC(=O)c5cnn6ccc(N7C[C@H]8C[C@@H]7CO8)nc56)c(C(F)F)n4)CC3)c21 (some centres unmarked) [I-348]
10 to 100 nM,> 200 nM,Cn1c(=O)n(C2CCC(=O)NC2=O)c2cccc(C#CCN3C4COCC3CN(C[C@H]3CC[C@H](n5cc(NC(=O)c6cnn7ccc(N8C[C@H]9C[C@@H]8CO9)nc67)c(C(F)F)n5)CC3)C4)c21 (some centres unmarked) [I-349]
> 200 nM,> 200 nM,Cn1c(=O)n(C2CCC(=O)NC2=O)c2cccc(C#CCN3CCN(C[C@H]4CC[C@H](n5cc(NC(=O)c6cnn7ccc(C8COC8)nc67)c(C(F)F)n5)CC4)CC3)c21 (some centres unmarked) [I-351]
10 to 100 nM,> 200 nM,Cn1c(=O)n(C2CCC(=O)NC2=O)c2cccc(C#CCN3CCN(C[C@H]4CC[C@H](n5cc(NC(=O)c6cnn7ccc(N8CC(C)(C)OC(C)(C)C8)nc67)c(C(F)F)n5)CC4)CC3)c21 (some centres unmarked) [I-352]
> 200 nM,> 200 nM,Cn1c(=O)n(C2CCC(=O)NC2=O)c2cccc(C#CCN3CCN(C[C@H]4CC[C@H](n5cc(NC(=O)c6cnn7ccc([C@@H]8CCOC8)nc67)c(C(F)F)n5)CC4)CC3)c21 (some centres unmarked) [I-353]
